Reference: patent US12708630B2, “Combined therapy of 4′-thio-5-aza-2′-deoxycytidine and Venetoclax” (PINOTBIO, INC., priority 2021, dated 2026)

Key:
Experiment in all cases: drug activity profiling cytotoxicity
Format in all cases: cell-based
C32TG = C32TG cell line, Skin (Melanoma); read-out: Aza-T-dCyd IC50
Protocol: (§1) To obtain a biomarker for Aza-T-dCyd, drug activity profiling analysis was performed to evaluate the cytotoxicity of 200 cell lines.
(§2) The drug responsiveness analysis of Aza-T-dCyd through drug activity profiling and genomic analysis of 200 cell lines confirmed the potent efficacy of Aza-T-dCyd in various solid tumors (Table 2).

ChaGoK1 = settings: Homo sapiens, ChaGo-K-1; ChaGoK1 cell line, Lung (NSCLC); read-out: Aza-T-dCyd IC50
Protocol: as §1, §2

COR-L105 = settings: Homo sapiens; COR-L105 cell line, Lung (NSCLC); read-out: Aza-T-dCyd IC50
Protocol: as §1, §2

HT-29 = settings: Homo sapiens; HT-29 cell line, Colon; read-out: Aza-T-dCyd IC50
Protocol: as §1, §2

MHH-PREB-1 = settings: Homo sapiens; MHH-PREB-1 cell line, B-cell lymphoma; read-out: Aza-T-dCyd IC50
Protocol: as §1, §2

LS1034 = settings: Homo sapiens, LS-1034; LS1034 cell line, Colon; read-out: Aza-T-dCyd IC50
Protocol: as §1, §2

SKMES1 = settings: Homo sapiens, SK-MES-1; SKMES1 cell line, Lung (NSCLC); read-out: Aza-T-dCyd IC50
Protocol: as §1, §2

HuP-T4 = settings: Homo sapiens; HuP-T4 cell line, Pancreas; read-out: Aza-T-dCyd IC50
Protocol: as §1, §2

KG-1 = settings: Homo sapiens; KG-1 cell line, AML; read-out: Aza-T-dCyd IC50
Protocol: as §1, §2

Hs 729 = Hs 729 cell line, Sarcoma; read-out: Aza-T-dCyd IC50
Protocol: as §1, §2

22Rv1 = settings: Homo sapiens; 22Rv1 cell line, Prostate; read-out: Aza-T-dCyd IC50
Protocol: as §1, §2

MDA MB 415 = settings: Homo sapiens; MDA MB 415 cell line, Breast; read-out: Aza-T-dCyd IC50
Protocol: as §1, §2

BM-1604 = BM-1604 cell line, Prostate; read-out: Aza-T-dCyd IC50
Protocol: as §1, §2

SK-MEL-28 = settings: Homo sapiens; SK-MEL-28 cell line, Skin (Melanoma); read-out: Aza-T-dCyd IC50
Protocol: as §1, §2

A549 = settings: Homo sapiens; A549 cell line, Lung (NSCLC); read-out: Aza-T-dCyd IC50
Protocol: as §1, §2

786-O = settings: Homo sapiens, 786-0; 786-O cell line, Kidney; read-out: Aza-T-dCyd IC50
Protocol: as §1, §2

MES-SA = settings: Homo sapiens; MES-SA cell line, Sarcoma; read-out: Aza-T-dCyd IC50
Protocol: as §1, §2

Hs 821.T = Hs 821.T cell line, Sarcoma; read-out: Aza-T-dCyd IC50
Protocol: as §1, §2

SNB-19 = settings: Homo sapiens; SNB-19 cell line, CNS (Glioma); read-out: Aza-T-dCyd IC50
Protocol: as §1, §2

TF-1 = settings: Homo sapiens; TF-1 cell line, Erythroleukemia; read-out: Aza-T-dCyd IC50
Protocol: as §1, §2

SU-DHL-10 = settings: Homo sapiens, SU-DHL10; SU-DHL-10 cell line, B-cell lymphoma; read-out: Aza-T-dCyd IC50
Protocol: as §1, §2

CAMA-1 = settings: Homo sapiens; CAMA-1 cell line, Breast; read-out: Aza-T-dCyd IC50
Protocol: as §1, §2

SK-N-FI = settings: Homo sapiens; SK-N-FI cell line, CNS (Neuroblastoma); read-out: Aza-T-dCyd IC50
Protocol: as §1, §2

EFM-19 = settings: Homo sapiens; EFM-19 cell line, Breast; read-out: Aza-T-dCyd IC50
Protocol: as §1, §2

Caki-1 = settings: Homo sapiens; Caki-1 cell line, Kidney; read-out: Aza-T-dCyd IC50
Protocol: as §1, §2

DMS53 = settings: Homo sapiens, DMS-53; DMS53 cell line, Lung (SCLC); read-out: Aza-T-dCyd IC50
Protocol: as §1, §2

MV-4-11 = settings: Homo sapiens, MV4-11; MV-4-11 cell line, AML; read-out: Aza-T-dCyd IC50
Protocol: as §1, §2

NU-DUL-1 = settings: Homo sapiens; NU-DUL-1 cell line, B-cell lymphoma; read-out: Aza-T-dCyd IC50
Protocol: as §1, §2

SW579 = SW579 cell line, Endocrine (Thyroid); read-out: Aza-T-dCyd IC50
Protocol: as §1, §2

Jurkat = settings: Homo sapiens; Jurkat cell line, ALL; read-out: Aza-T-dCyd IC50
Protocol: as §1, §2

`Nc1ncn([C@H]2CC(O)[C@@H](CO)S2)c(=O)n1` (stereo partly drawn) [Aza-T-dCyd, 4′-thio-5-aza-2′-deoxycytidine] gave an IC50 (C32TG) of 953 nM, an IC50 (ChaGoK1) of 3410 nM and an IC50 (COR-L105) of 2240 nM. It also gave an IC50 (HT-29) of 323 nM, an IC50 (MHH-PREB-1) of 38.9 nM and an IC50 (LS1034) of 1410 nM. It also gave an IC50 (SKMES1) of 314 nM, an IC50 (HuP-T4) of 321 nM and an IC50 (KG-1) of 461 nM. The IC50 (Hs 729) was greater than 10000 nM, the IC50 (22Rv1) was 2710 nM and the IC50 (MDA MB 415) was greater than 10000 nM. The IC50 (BM-1604) was 4410 nM, the IC50 (SK-MEL-28) was 2500 nM and the IC50 (A549) was 190 nM. The IC50 (786-O) was 249 nM, the IC50 (MES-SA) was 135 nM and the IC50 (Hs 821.T) was greater than 10000 nM. For the same compound, the IC50 (SNB-19) was 170 nM, the IC50 (TF-1) was 733 nM and the IC50 (SU-DHL-10) was 36.6 nM. The IC50 (CAMA-1) was greater than 10000 nM, the IC50 (SK-N-FI) was 2710 nM and the IC50 (EFM-19) was 3950 nM. It also gave an IC50 (Caki-1) of 85.6 nM, an IC50 (DMS53) of 4220 nM and an IC50 (MV-4-11) of 183 nM. It also gave an IC50 (NU-DUL-1) of 24.5 nM, an IC50 (SW579) of 1050 nM and an IC50 (Jurkat) of 69.5 nM.
